We go through nine compounds from patent US5430047A, “Neurotensin antagonists” (Warner-Lambert Company, priority 1994, dated 1995).

Broadly, the Ki is a dissociation constant, usually derived from enzyme kinetics or from competition with a known ligand. One may read the IC50 as the midpoint of a concentration-inhibition curve.

The target of one assay is T1, neurotensin receptor (Mus musculus, UniProt O88319).
T1 construct: from tissue
T1 sequence (O88319 whole entry): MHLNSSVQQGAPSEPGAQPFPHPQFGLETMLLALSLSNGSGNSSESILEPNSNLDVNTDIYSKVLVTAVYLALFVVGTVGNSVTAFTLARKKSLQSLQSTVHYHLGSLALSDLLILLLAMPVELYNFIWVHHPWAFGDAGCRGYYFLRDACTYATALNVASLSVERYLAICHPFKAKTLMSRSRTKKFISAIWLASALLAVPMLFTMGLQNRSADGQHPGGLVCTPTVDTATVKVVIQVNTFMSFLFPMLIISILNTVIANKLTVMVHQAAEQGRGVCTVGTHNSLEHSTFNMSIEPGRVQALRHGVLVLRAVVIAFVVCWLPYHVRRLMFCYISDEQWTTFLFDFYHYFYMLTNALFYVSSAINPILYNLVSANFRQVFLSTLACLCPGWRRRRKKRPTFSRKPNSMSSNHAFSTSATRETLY
In words: Inhibition of [3H] neurotensin binding in a receptor assay. The conditions noted are these: [3H] neurotensin receptor binding. The procedure:
(§1) Thus, the compounds of Formula I were tested for their ability to inhibit [^3 H] neurotensin binding in a receptor assay described by Mazella J., et al., Journal of Biological Chemistry, 263:144-149 (1988) and Kitabgi P., et al., European Journal of Pharmacology, 140:285-293 (1987). Compounds were tested as neurotensin antagonists using the functional assay described by Bunzou J. C., et al., Biochem. J., 264:871-878 (1989) and Turner J., et al., J. Pharm. Exp. Ther., 253:1049-1056 (1990). Thus, compounds were tested for their ability to inhibit neurotensin-induced calcium mobilization in HT29 cells.
(§2) The above test methods are incorporated herein by reference. The data in the table show the neurotensin receptor binding activity and calcium mobilization activity, of representative compounds of Formula I.
`O=C(O)c1cccc(C(CCc2ccc(F)cc2)CC(=O)c2ccc(F)cc2)c1` (stereo not drawn) [Example 22, 3-[3-(4-Fluorophenyl)-1-[2-(4-fluorophenyl)ethyl]-3-oxopropyl]-benzoic acid] displayed a Ki of 3.24 µM.
Same read-out and setting: as for `O=C(CC(CC(=O)c1ccc(Cl)cc1)c1cccc(-c2nnn[nH]2)c1)c1ccc(Cl)cc1` [Example 18, 1,5-Bis-(4-chlorophenyl)-3-[3-(1H-tetrazol-5-yl)phenyl]-pentane-1,5-dione], the figure is 5.9 µM; as for `O=C(O)c1cccc(C(CCc2ccc(Cl)cc2)CC(=O)c2ccc(Cl)cc2)c1` (stereo not drawn) [Example 20, 3-[3-(4-Chlorophenyl)-1-[2-(4-chlorophenyl)ethyl]-3-oxopropyl]-benzoic acid], 6.74 µM.
`O=C(O)c1cccc(C(CCc2ccccc2)CC(=O)c2ccc(Cl)cc2)c1` (stereo not drawn) [Example 23, 3-[3-(4-Chlorophenyl)-3-oxo-1-[2-phenylethyl]propyl]-benzoic acid] had a Ki of 10.4 µM.
With `Cc1ccc(C(=O)CC(CC(=O)c2ccc(F)cc2)c2cccc(C(=O)O)c2)cc1` (stereo not drawn) [Example 15, 3-[1-[2-(4-Fluorophenyl)-2-oxoethyl]-3-oxo-3-p-tolylpropyl]-benzoic acid], the affinity, expressed as Ki, was 0.448 µM.
Compound `O=C(O)c1cccc(C(CCc2ccc(Cl)cc2)CC(=O)c2ccccc2)c1` (stereo not drawn) [Example 19, 3-[1-[2-(4-Chlorophenyl)ethyl]-3-oxo-3-phenylpropyl]-benzoic acid] came in with a Ki of 17.7 µM.
As for `O=C(CC(CC(=O)c1ccc(F)cc1)c1cccc(-c2nnn[nH]2)c1)c1ccc(F)cc1` [Example 17, 1,5-Bis-(4-fluorophenyl)-3-[3-(1H-tetrazol-5-yl)-phenyl]-pentane-1,5-dione], the Ki was 6.32 µM.
For the compound `O=C(O)c1cccc(C(CCc2ccc(F)cc2)CC(=O)c2ccccc2)c1` (stereo not drawn) [Example 21, 3-[1-[2-(4-Fluorophenyl)ethyl]-3-oxo-3-phenylpropyl]-benzoic acid], the Ki was found to be 29.5 µM.

For the next assay, the target named is T2, neurotensin receptor (Homo sapiens, UniProt P30989).
T2 construct: endogenous in cells; host or cells: HT29 cells
T2 sequence (P30989 whole entry): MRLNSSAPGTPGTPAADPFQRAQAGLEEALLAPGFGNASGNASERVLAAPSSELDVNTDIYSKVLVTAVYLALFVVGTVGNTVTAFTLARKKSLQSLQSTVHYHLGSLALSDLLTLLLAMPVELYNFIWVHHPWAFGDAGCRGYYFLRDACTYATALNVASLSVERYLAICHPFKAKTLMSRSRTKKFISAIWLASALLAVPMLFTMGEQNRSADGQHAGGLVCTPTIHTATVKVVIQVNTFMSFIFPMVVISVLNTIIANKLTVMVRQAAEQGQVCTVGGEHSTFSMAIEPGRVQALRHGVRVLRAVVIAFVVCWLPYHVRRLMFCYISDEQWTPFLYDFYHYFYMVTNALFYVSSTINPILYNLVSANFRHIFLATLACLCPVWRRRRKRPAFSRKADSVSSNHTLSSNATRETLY
In words: Inhibition of neurotensin-induced calcium mobilization in HT29 cells. It counts as cell-based.
Conditions: not given
The procedure:
as §1, §2
On the technique in general: Calcium flux is commonly read through the fluorescence of an indicator in the cells.
Regarding `COc1cccc(OC)c1C(=O)CC(CC(=O)c1ccc(Cl)cc1)c1cccc(C(=O)O)c1` (stereo not drawn) [Example 7, 3-[1-[2-(4-Chlorophenyl)-2-oxoethyl]-3-(2,6-dimethoxyphenyl)-3-oxopropyl]-benzoic acid], the IC50 amounted to 2.2 µM.
